Experiments:
[1] = test system: UM cell lines 92.1 and OMM1; experiment: ASO-compound combination validation, Excess over Bliss (viability and confluence); format: cell-based, human; conditions: compound combined with LNA ASO 3 (50 nM), 72 h, viability and confluence read outs; >0 synergism
Experimental: For the validation experiments, uveal melanoma cell lines 92.1 and OMM1 were seeded in 96 well plates (Corning costar 3596) at a density of 5000 cells/well and were allowed to settle overnight. Subsequently, the cells were transfected using lipofectamine 2000 (Life Technologies) with 50 or 100 nM LNA ASO 3 or LNA NTC and treated with various concentrations of the compounds and with a final DMSO concentration of maximum 0.1%. The compounds were added to the wells using the HP D300e Digital dispenser (Tecan). Control cells were transfected with LNA NTC ASO and treated with DMSO.
Cell viability was also examined using a CellTiter-Glo assay (Promega). Before initiating the assay, the culture plates and reconstituted assay buffer were placed at room temperature for 30 minutes. Next, the culture medium was replaced by 200 μl fresh culture medium—- assay buffer (1:1) mix. To induce complete cell lysis, the plates were shaken for 10 min. 100 μl from each well was subsequently transferred to an opaque 96-well plate (Nunc), which was measured with a GloMax 96 Microplate Luminometer (Promega). The CellTiter-Glo assay was performed on various predefined timepoints.
For real-time analysis, IncuCyte Zoom system and IncuCyte S3 system (Essen BioScience) were used. Cells were seeded and treated as described above. After treatment, the culture plate was incubated in an IncuCyte Zoom system or IncuCyte S3 system at 37° C. in a humidified 5% CO2 incubator. Phase contrast whole well images were captured every 3 h. The IncuCyte ZOOM and IncuCyte S3 software (Essen BioScience) were utilized in real-time to measure % confluence, as a proxy for proliferation.
Bliss independence (BI) scores were calculated to determine ASO-compound interactions. The predictive performance (BI score) is then compared to the observed drug interaction data measured by the Excess over Bliss. Excess over Bliss scores>0 indicate drug synergism, Excess over Bliss scores=0 indicate additive effects and Excess over Bliss scores<0 indicate drug antagonism.

[2] = test system: 4E-BP1 (T37/T46); experiment: Western blot for 4E-BP1 and phospho-4E-BP1; format: cell-based, human; conditions: 92.1, 24 h, GDC-0349 0.625 μM or 1.25 μM; for phosphorylated 4E-BP1 (T37/T46) levels: ASO 3 50 nM
Experimental: (§1) Cells were lysed in RIPA lysis buffer (5 mg/ml sodium deoxycholate, 150 mM NaCl, 50 mM Tris-HCl pH 7.5, 0.1% SDS solution, 1% NP-40) supplemented with protease and/or phosphatase inhibitors Protein concentrations were determined with the BCA protein assay (Bio-Rad). In total, 35 μg of protein lysate was loaded onto an SDS-PAGE gel (10% Pre-cast, Bio-Rad), run at 100 V for 1 h and subsequently blotted onto a nitrocellulose membrane. Antibodies against phospho-S6 Ribosomal Protein (Ser235/236) (#2211, 1:1000 dilution), phospho-4E-BP(Thr37/46) (#2855, 1:1000 dilution), S6 Ribosomal Protein (#2317, 1:1000 dilution) and 4E-BP1 (#9644, 1:1000 dilution) were purchased from Cell Signaling Technology. HRP-labeled anti-rabbit (7074 S, Cell Signaling, 1:10 000 dilution) and anti-mouse (7076P2, Cell Signaling, 1:10 000 dilution) antibodies were used as secondary antibodies. Anti-Vinculin antibody (V9131, Sigma-Aldrich, 1:10 000 dilution) was used as loading control. The antibodies were diluted in BSA/TBST (5% BSA in TBS with 0.1% Tween20) and antibody binding with membrane was evaluated using the SuperSignal West Dura Extended Duration Substrate (ThermoFisher Scientific) or SuperSignal West Femto Maximum Sensitivity Substrate (ThermoFisher Scientific). Imaging was performed by means of the Amersham Imager 680 (GE Healthcare). Image J was used for the quantification of the blots.

[3] = test system: rpS6 (S235/S236); experiment: Western blot for rpS6 and phospho-rpS6; format: cell-based, human; conditions: 92.1, 24 h, GDC-0349 0.625 μM or 1.25 μM; for phosphorylated rpS6 (S235/S236) levels: ASO 3 50 nM
Experimental: as §1

[4] = test system: UM cell lines 92.1 and OMM1; experiment: SUnSET puromycin incorporation (translation rate); format: cell-based, human; conditions: 92.1 and OMM1, 24 h; ASO 3 50 nM, GDC-0349 0.625 μM
Experimental: Cells were seeded in T75 culture flasks (Cellstar) at a density of 1 170 000 cells/T75 flask 24 h prior to transfection. The cells were transfected with 50 nM LNA ASO 3 or NTC using lipofectamine 2000, followed by GDC-0349 (0.625 μM) or DMSO treatment. 24 h later, cells were washed in 1× phosphate buffer saline (PBS) and subsequently incubated with puromycin containing media (InvivoGen, 10 μg/ml) for 10 min. Puromycin incorporation is a proxy for the mRNA translation rate in vitro and was measured by Western blotting using an anti-puromycin antibody (MABE343, clone 12D10, Merck Millipore, 1:10 000). The antibody was diluted in Milk/TB ST (5% non-fat dry milk in TBS with 0.1% Tween20). Imaging was performed by means of the Amersham Imager 680 (GE Healthcare). An equal protein loading was verified using a ponceau S staining (Sigma Aldrich). Image J was used for the quantification of the blots.

[5] = test system: UM cell lines 92.1 and OMM1; experiment: Differential gene expression analysis by RNA sequencing; format: cell-based, human; conditions: 92.1 and OMM1, 24 h; ASO 3 50 nM, GDC-0349 0.625 μM
Experimental: RNA sequencing was performed on quadruplicates of NTC (50 nM), ASO 3 (50 nM), GDC-0349 (0.625 μM) and ASO 3 (50 nM)+GDC-0349 (0.625 μM) treated 92.1 and OMM1 cells. Libraries for RNA sequencing were prepared using the Quant Seq 3′ end library prep […] and quantified on a Qubit 2.0 Fluorometer prior to single-end sequencing with 75 bp read length on a NextSeq 500 sequencer (Illumina). Reads were mapped to the human genome (hg38) and gene expression was quantified using HTSeq. Differentialy expressed genes were identified using DESeq2.

[6] = test system: SAMMSON; experiment: SAMMSON expression / knockdown by RT-qPCR in UM cells; format: cell-based, human; conditions: in most cell lines
Experimental: Total RNA was extracted using the miRNeasy kit (Qiagen) according to the manufacturer's instructions, including on-column DNase treatment. The Nanodrop (ThermoFisher Scientific) was used to determine RNA concentrations and cDNA synthesis was performed using the iScript Advanced cDNA synthesis kit (Bio-Rad) using a mix containing 200 ng of RNA, 4 μl of 5× iScript advanced reaction buffer and 1 μl of iScript advanced reverse transcriptase. The qPCR mix contains 2 μl of cDNA (5 ng), 2.5 μl SsoAdvanced Universal SYBR Green Supermix (Bio-Rad), 0.25 μl forward (5 μM, IDT) and reverse primer (5 μM, IDT) and was analyzed on a LC-480 device (Roche). Expression levels were normalized using expression data of at least 2 stable reference genes out of 4 tested reference genes (SDHA^9,10, HPRT1^11,12, UBC^13 and TBP^14,15). Analysis was performed using the qbase+software (https://www.qbaseplus.com).

[7] = test system: UM patient derived xenografts (PDX) model (MP46); experiment: Tumor growth in UM patient derived xenograft model; format: in vivo, mouse
Experimental: Since SAMMSON expression is not conserved across species, an UM patient derived xenografts (PDX) model (MP46) was used to investigate the effect on tumor growth in vivo upon SAMMSON knock down. LNA ASO 3 and LNA non targeting control (NTC) were subcutaneous injected at a dose of 10 mg/kg three times in the first week and twice per week in the second and third week.

[8] = test system: UM cell line OMM1; experiment: Seahorse XF Cell Mito Stress Test; format: cell-based, human; conditions: GDC-0349 0.625 μM, ASO 3 50 nM, combination compared to single ASO 3 treatment
Experimental: Cells were seeded in T75 culture flasks (Cellstar) at a density of 1 170 000 cells/T75 flask 24 h prior to transfection. The cells were transfected with 50 nM ASO 3 or NTC using lipofectamine 2000, followed by GDC-0349 (0.625 μM) treatment. Four hours later, 25 000 cells were transferred to Seahorse XFp Cell Culture Miniplates (Agilent) and were allowed to settle overnight. Subsequently, oxygen consumption rates were measured in triplicates for each condition using the Seahorse XFp device (Agilent) according to the standard mito stress test procedures in seahorse assay medium supplemented with 14.3 mM glucose, 1 mM pyruvate and 2 mM glutamine (Sigma), and cells were sequentially challenged with 1 μM oligomycin, 1 μM carbonyl cyanide 4-(trifluoromethoxy)-phenylhydrazone (FCCP) and 0.5 μM of a rotenone antimycin A mix (Agilent). Following the assay, protein concentrations were calculated based upon absorbance reading at 280 nm (Biodrop, Isogen Lifescience) for normalization of the results. Spare respiratory capacity was calculated as the difference between maximal and the basal oxygen consumption rate. Relative oxygen consumption rates are relative compared to NTC values.

## COc1cc(NS(C)(=O)=O)ccc1Nc1c2ccccc2nc2ccccc12 [amsacrine, N-{4-[(acridin-9-yl)amino]-3-methoxyphenyl}methanesulfonamide]
[1]
  Excess over Bliss score (synergism): synergistic

## LNA ASO 3: LNA gapmer antisense oligonucleotide targeting SAMMSON, GTGTGAACTTGGCT (SEQ ID NO: 1), purchased from Qiagen (LNA gapmer from Qiagen, pattern not given here)
[2]
  phosphorylated 4E-BP1 (T37/T46) levels: less phosphorylated 4E-BP1
[3]
  phosphorylated rpS6 (S235/S236) levels: doesn't affect the phosphorylation status of rpS6
[4]
  translation rate (incorporated puromycin signal): translation inhibition
[5]
  expression pattern of differentially expressed genes compared to NTC ASO: reverses the expression pattern
[6]
  knockdown and phenotypic effect compared to LNA ASO 11: more efficient knockdown and phenotypic effect
[7]; subcutaneous 10 mg/kg LNA ASO 3, PDX mice
  weight loss: no weight loss
[7]; subcutaneous 10 mg/kg, three times in first week, twice per week in second and third week, compared to NTC treated PDX mice
  tumor growth: significant tumor growth inhibition

## Nc1ccccc1NC(=O)c1ccc(CNC(=O)OCc2cccnc2)cc1 [entinostat, (pyridin-3-yl)methyl N-({4-[(2-aminophenyl)carbamoyl]phenyl}methyl)carbamate]
[1]
  Excess over Bliss score (synergism): synergistic

## CC#C[C@]1(O)CC[C@H]2[C@@H]3CCC4=CC(=O)CCC4=C3[C@@H](c3ccc(N(C)C)cc3)C[C@@]21C [mifepristone, (1S,3aS,3bS,10R,11 aS)-10-[4-(dimethylamino)phenyl]-1-hydroxy-11a-methyl-1-(prop-1-yn-1-yl)-1H,2H,3H,3aH,3bH,4H,5H,7H,8H,9H,10H,11H,11aH-cyclopenta[a]phenanthren-7-one]
[1]
  Excess over Bliss score (synergism): synergistic

## CC(=O)Nc1ccc(C(=O)Nc2ccccc2N)cc1 [CI-994, N-(2-aminophenyl)-4-acetamidobenzamide]
[1]
  Excess over Bliss score (synergism): synergistic

## Oc1c(I)cc(Cl)c2cccnc12 [clioquinol, 5-chloro-7-iodoquinolin-8-ol]
[1]
  Excess over Bliss score (synergism): synergistic

## CCNC(=O)Nc1ccc(-c2nc3c(c(N4CCOC[C@@H]4C)n2)CCN(C2COC2)C3)cc1 [GDC-0349, 3-ethyl-1-(4-{4-[(3S)-3-methylmorpholin-4-yl]-7-(oxetan-3-yl)-5H,6H,7H,8H-pyrido[3,4-d]pyrimidin-2-yl}phenyl)urea]
[2]
  phosphorylated 4E-BP1 (T37/T46) levels: dose dependent reduction
  total 4E-BP1 levels: remain unaffected
[3]
  phosphorylated rpS6 (S235/S236) levels: dose dependent reduction
  total rpS6 levels: remain unaffected
[8]
  mitochondrial function / oxidative phosphorylation (oxygen consumption rate): does not alter the mitochondrial function
[1]
  Excess over Bliss score (synergism): synergistic
[4]
  translation rate (incorporated puromycin signal): translation inhibition
[5]
  expression pattern of differentially expressed genes compared to NTC ASO: not affecting the expression of many of these genes

## Cc1cc(C)c(-c2csc(NC(=O)c3ccccc3)n2)c(C)c1 [INH-6, N-[4-(2,4,6-trimethylphenyl)-2-thiazolyl]-benzamide]
[1]
  Excess over Bliss score (synergism): synergistic

Reference: patent US20220218734A1, “COMBINATIONS OF THERAPEUTIC AGENTS FOR TREATING UVEAL MELANOMA” (Universiteit Gent, priority 2019, published 2022)
